# From US20260076372A1, “SPRAYABLE ANTIFUNGAL COMPOSITION FOR USE IN THE FIELD OF AGRICULTURE, AND ASSOCIATED METHOD AND USE” (GAIAGO, priority 2022, published 2026)
# Experiments:
# Assay type in all cases: cell-based
# [1] = test system: Septoria tritici (Zymoseptoria tritici); assay: in vitro 96-well micro-titration test on Septoria tritici / Zymoseptoria tritici; details: for EC95 (%): Z. tritici, Table 23, ingredient alone in water
# Plasmopara viticola = assay: in vitro antifungal action of single ingredients on Plasmopara viticola
# Source text: In Vitro Results Showing the Syngergistic Action of Yucca Juice with the Other Compounds of the Composition According to the Invention on A. solani, Z. tritici, and Plasmopara viticola,
# The following tables show in vitro the synergistic antifungal action between yucca juice and the other compounds of the composition of the invention on various pathogens. The concentrations given are as a mass %. The solutions tested as aqueous solutions.
# Mo denotes sodium molybdate, Bo denotes boron ethanolamine.
# Alternaria solani = assay: in vitro 96-well micro-titration test on Alternaria solani spores; details: for EC95 (%): A. solani, Table 22, ingredient alone in water
# [2] = Concentration 0.05% mass of the stated aqueous solution
compound,measurement,setting,value
O=S(=O)([O-])[O-].[Mn+2] [Mn 7%],"inhibition of Z. tritici, ingredient alone in water",[1]; Concentration 0.05%,11.3%
same,"inhibition of Z. tritici, ingredient alone in water",[1]; Concentration 0.50%,27.6%
same,"inhibition of Z. tritici, ingredient alone in water",[1]; Concentration 1.00%,33.5%
same,"inhibition of Z. tritici, ingredient alone in water",[1]; Concentration 2.00%,28.7%
same,"inhibition of Z. tritici, ingredient alone in water",[1]; Concentration 3.00%,28.0%
same,"inhibition of Z. tritici, ingredient alone in water",[1]; Concentration 6.00%,29.0%
same,"inhibition of Z. tritici, ingredient alone in water",[1]; Concentration 10.00%,29.5%
same,EC95 (%),[1],>10%
same,"in vitro activity against Plasmopara viticola, ingredient alone in water",Plasmopara viticola; Concentration 0.05%,25.41%
same,"in vitro activity against Plasmopara viticola, ingredient alone in water",Plasmopara viticola; Concentration 0.50%,89.41%
same,"in vitro activity against Plasmopara viticola, ingredient alone in water",Plasmopara viticola; Concentration 1.00%,94.78%
same,"in vitro activity against Plasmopara viticola, ingredient alone in water",Plasmopara viticola; Concentration 2.00%,97.25%
same,"in vitro activity against Plasmopara viticola, ingredient alone in water",Plasmopara viticola; Concentration 3.00%,97.53%
same,"in vitro activity against Plasmopara viticola, ingredient alone in water",Plasmopara viticola; Concentration 6.00%,97.69%
same,"in vitro activity against Plasmopara viticola, ingredient alone in water",Plasmopara viticola; Concentration 10.00%,97.64%
same,EC95 (%),Alternaria solani,6.4%
same,"inhibition of A. solani, ingredient alone in water",Alternaria solani; [2],0.0%
same,"inhibition of A. solani, ingredient alone in water",Alternaria solani; Concentration 0.50%,16.9%
same,"inhibition of A. solani, ingredient alone in water",Alternaria solani; Concentration 1.00%,29.6%
same,"inhibition of A. solani, ingredient alone in water",Alternaria solani; Concentration 2.00%,73.2%
same,"inhibition of A. solani, ingredient alone in water",Alternaria solani; Concentration 3.00%,89.4%
same,"inhibition of A. solani, ingredient alone in water",Alternaria solani; Concentration 6.00%,94.5%
same,"inhibition of A. solani, ingredient alone in water",Alternaria solani; Concentration 10.00%,101.1%
"[Na+].[Na+].[O]=[Mo](=[O])([O-])[O-] [Mo 0.01%, sodium molybdate]","inhibition of Z. tritici, ingredient alone in water",[1]; Concentration 0.05%,−1.7%
same,"inhibition of Z. tritici, ingredient alone in water",[1]; Concentration 0.50%,−1.1%
same,"inhibition of Z. tritici, ingredient alone in water",[1]; Concentration 1.00%,−2.3%
same,"inhibition of Z. tritici, ingredient alone in water",[1]; Concentration 2.00%,−2.2%
same,"inhibition of Z. tritici, ingredient alone in water",[1]; Concentration 3.00%,−1.8%
same,"inhibition of Z. tritici, ingredient alone in water",[1]; Concentration 6.00%,−1.6%
same,"inhibition of Z. tritici, ingredient alone in water",[1]; Concentration 10.00%,−2.2%
same,EC95 (%),[1],>10%
same,"in vitro activity against Plasmopara viticola, ingredient alone in water",Plasmopara viticola; Concentration 0.05%,15.33%
same,"in vitro activity against Plasmopara viticola, ingredient alone in water",Plasmopara viticola; Concentration 0.50%,46.43%
same,"in vitro activity against Plasmopara viticola, ingredient alone in water",Plasmopara viticola; Concentration 1.00%,53.15%
same,"in vitro activity against Plasmopara viticola, ingredient alone in water",Plasmopara viticola; Concentration 2.00%,72.42%
same,"in vitro activity against Plasmopara viticola, ingredient alone in water",Plasmopara viticola; Concentration 3.00%,74.22%
same,"in vitro activity against Plasmopara viticola, ingredient alone in water",Plasmopara viticola; Concentration 6.00%,74.22%
same,"in vitro activity against Plasmopara viticola, ingredient alone in water",Plasmopara viticola; Concentration 10.00%,96.02%
same,EC95 (%),Alternaria solani,>10%
same,"inhibition of A. solani, ingredient alone in water",Alternaria solani; [2],2.2%
same,"inhibition of A. solani, ingredient alone in water",Alternaria solani; Concentration 0.50%,−1.2%
same,"inhibition of A. solani, ingredient alone in water",Alternaria solani; Concentration 1.00%,−7.4%
same,"inhibition of A. solani, ingredient alone in water",Alternaria solani; Concentration 2.00%,−1.3%
same,"inhibition of A. solani, ingredient alone in water",Alternaria solani; Concentration 3.00%,−1.8%
same,"inhibition of A. solani, ingredient alone in water",Alternaria solani; Concentration 6.00%,−1.5%
same,"inhibition of A. solani, ingredient alone in water",Alternaria solani; Concentration 10.00%,−0.4%
